Columns and labels:
[1] = test system: CD36^+/+ and CD36^−/− mice; experiment: Myocardial NEFA uptake by μPET with [18F]-FTHA; assay type: in vivo; conditions: 6 hours reperfusion, in words
Procedure: (§1) Experimental model of IHD: Transient left coronary artery ligation in vivo. Mice were subjected to a transient LCAL surgery as described before, with minor modifications [Tarnayski et al., 2004]. Mice were injected i.p. with buprenorphine (0.05 mg/kg) and placed in an induction chamber with inhalation anesthesia comprised of 3% isoflurane mixed with 100% oxygen. Mice were intubated with a blunt ended 20-gauge catheter into the trachea via the mouth and mechanically ventilated at a tidal volume of 7 ml/kg at 130 respirations/min with a MiniVent™ mouse ventilator (model 845, Harvard Apparatus, Saint-Laurent, QC, Canada). Anesthesia was maintained with 1.5-2% isoflurane and the animals were kept warm using electrical heating pads during the surgical procedure. The chest was opened by a horizontal incision through the skin and muscle layers at the third intercostal space exposing the left side of the heart. […] Visual blanching distal to the coronary occlusion confirmed myocardial ischaemia. Lidocaine (6 mg/kg) was administered i.p. just following occlusion and prior to reperfusion. After 30 minutes, the PE10 tubing was removed allowing reperfusion. The lungs were reinflated and the chest wound closed layer by layer before extubation. At 6 hours following reperfusion, mice were anesthetized (isoflurane), a blood sample withdrawn, and the heart arrested in diastole by an intravenous injection of 1 M KCl (0.5 mL). Hearts were immediately frozen at −80° C. unless otherwise stated.
Imaging experiments. Imaging experiments were performed with the avalanche photodiode-based small animal PET scanner (μPET) [Lecomte et al., 1996]. […]
Imaging Data Analysis. For [^11C]-acetate images, dynamic series of 25 frames each were sorted out whereas 27 frames were used for ^18FDG and ^18FTHA imaging, and were reconstructed and analyzed using multicompartmental analysis [Menard et al., 2009] or the Patlak method for FTHA [Patlak and Blasberg, 1985]. […]
Plasma and tissue assays. Plasma insulin, triglyceride (TG) and NEFA levels were measured as previously described [Menard et al., 2009]. […]

[2] = test system: CD36^+/+ and CD36^−/− mice; experiment: Myeloperoxidase assay of myocardial leukocyte accumulation; assay type: in vivo; conditions: 48 hours reperfusion; CD36-dependent (CD36^+/+ mice); 10-week pretreatment; p<0.05
Procedure: as §1, with “At 6 hours following reperfusion, mice were anesthetized (isoflurane), a blood sample withdrawn, and the heart arrested in diastole by an intravenous injection of 1 M KCl (0.5 mL). Hearts were immediately frozen at −80° C. unless otherwise stated.” left out
Myeloperoxidase assay. […] The numbers of PMN per left ventricle were calculated from the standard curves.

## HAIC-2MeDTrp-DLys-Trp-DPhe-Lys-NH2 [EP 80317]
[1]; CD36^+/+ mice
  total plasma NEFA uptake (Km): reduced
[1]; CD36^+/+ or CD36^−/− mice
  mean fractional uptake rate (Ki) of plasma NEFA: not affected
[1]; CD36^−/− mice
  net fatty acid uptake (Km): not modulated
[2]
  reduction in myocardial leukocyte accumulation: 53%
